Key:
[1] = biological target: T1, Acetylcholinesterase (Homo sapiens, UniProt P22303); assay: Inhibition of human recombinant AChE
[2] = biological target: Cholinesterase (Homo sapiens, UniProt P06276); assay: Inhibition of human recombinant BChE
[3] = biological target: T1, Acetylcholinesterase; assay: Inhibition of human AChE-mediated beta amyloid 1-40 aggregation at 100 uM

T1 sequence (P22303 whole entry): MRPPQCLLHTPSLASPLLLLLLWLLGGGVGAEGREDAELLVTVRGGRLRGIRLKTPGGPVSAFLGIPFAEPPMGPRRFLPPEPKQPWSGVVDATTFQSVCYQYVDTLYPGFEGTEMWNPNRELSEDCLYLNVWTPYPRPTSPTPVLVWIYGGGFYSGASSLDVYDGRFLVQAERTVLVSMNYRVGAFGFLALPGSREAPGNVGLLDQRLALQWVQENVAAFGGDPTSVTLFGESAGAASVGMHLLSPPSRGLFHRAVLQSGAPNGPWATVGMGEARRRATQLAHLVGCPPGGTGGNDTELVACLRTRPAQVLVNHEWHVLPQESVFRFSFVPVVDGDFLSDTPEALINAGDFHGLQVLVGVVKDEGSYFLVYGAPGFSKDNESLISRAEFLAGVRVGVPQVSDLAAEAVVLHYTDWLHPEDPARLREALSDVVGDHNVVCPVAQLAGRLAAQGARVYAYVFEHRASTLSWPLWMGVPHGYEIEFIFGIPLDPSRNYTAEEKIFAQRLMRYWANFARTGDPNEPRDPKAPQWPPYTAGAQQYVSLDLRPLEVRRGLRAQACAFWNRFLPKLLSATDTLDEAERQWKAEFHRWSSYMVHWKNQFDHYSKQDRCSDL
Chain of Cholinesterase (P06276 whole entry): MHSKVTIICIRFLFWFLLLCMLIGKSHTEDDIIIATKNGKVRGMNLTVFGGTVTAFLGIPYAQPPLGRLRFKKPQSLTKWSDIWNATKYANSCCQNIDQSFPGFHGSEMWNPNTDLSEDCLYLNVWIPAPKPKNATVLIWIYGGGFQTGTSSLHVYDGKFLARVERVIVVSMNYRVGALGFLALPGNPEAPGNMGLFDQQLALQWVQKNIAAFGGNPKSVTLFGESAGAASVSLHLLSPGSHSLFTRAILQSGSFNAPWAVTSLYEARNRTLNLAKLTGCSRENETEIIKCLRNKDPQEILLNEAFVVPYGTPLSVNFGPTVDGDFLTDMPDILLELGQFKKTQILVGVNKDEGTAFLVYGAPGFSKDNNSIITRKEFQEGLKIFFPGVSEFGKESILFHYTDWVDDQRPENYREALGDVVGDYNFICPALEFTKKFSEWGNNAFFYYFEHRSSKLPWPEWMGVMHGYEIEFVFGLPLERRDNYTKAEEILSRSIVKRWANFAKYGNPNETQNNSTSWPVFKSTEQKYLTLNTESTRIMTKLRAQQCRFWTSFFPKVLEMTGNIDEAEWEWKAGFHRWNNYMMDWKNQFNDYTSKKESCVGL

Compound	IC50 [1] [µM]	IC50 [2] [µM]	inhibition [3] [%]
COc1cc2cc(-c3ccc(CN(C)Cc4cccc(C)c4)cc3)c(=O)oc2cc1OC	0.122		
COc1ccc2oc(-c3ccc(CN(C)Cc4ccccc4)cc3)cc(=O)c2c1	18.1	88.9	
COc1cc2cc(-c3ccc(CN(C)Cc4ccccc4)cc3)c(=O)oc2cc1OC			35
COc1cc2oc3cc(CN(C)Cc4ccccc4)ccc3c(=O)c2cc1OC	30.3		
COc1cc2oc(-c3cccc(CN(C)Cc4ccccc4)c3)cc(=O)c2cc1OC	2.27		
COc1ccc2cc(-c3ccc(CN(C)Cc4ccccc4)cc3)c(=O)oc2c1	0.892	570	< 5
COc1cc2cc(-c3cccc(CN(C)Cc4ccccc4)c3)c(=O)oc2cc1OC	0.202	279	25
COc1cc2cc(-c3ccc(CN(C)Cc4ccccc4C)cc3)c(=O)oc2cc1OC	0.366		
COc1ccc2oc(=O)c(-c3ccc(CN(C)Cc4ccccc4)cc3)cc2c1	0.163	1300	< 5
COc1cc2cc(-c3ccc(C[N+](C)(C)Cc4ccccc4)cc3)c(=O)oc2cc1OC	0.0105	43.8	
COc1ccc2cc(-c3cccc(CN(C)Cc4ccccc4)c3)c(=O)oc2c1	2.29		
COc1ccccc1CN(C)Cc1ccc(-c2cc3cc(OC)c(OC)cc3oc2=O)cc1	0.0621	52.9	15
COc1cc2cc(-c3ccc(CN(CCO)Cc4ccccc4)cc3)c(=O)oc2cc1OC	0.0493	35.1	6
COc1ccc2oc(=O)c(-c3cccc(CN(C)Cc4ccccc4)c3)cc2c1	0.303	136	
COc1ccc(CN(C)Cc2ccc(-c3cc4cc(OC)c(OC)cc4oc3=O)cc2)cc1	2.26		
COc1cc2occ(-c3ccc(CN(C)Cc4ccccc4)cc3)c(=O)c2cc1OC	1.23		
COc1cccc(CN(C)Cc2ccc(-c3cc4cc(OC)c(OC)cc4oc3=O)cc2)c1	0.714		
CCN(Cc1ccccc1)Cc1ccc(-c2cc3cc(OC)c(OC)cc3oc2=O)cc1	0.0183		38
COc1cc2occ(-c3cccc(CN(C)Cc4ccccc4)c3)c(=O)c2cc1OC	2.02		
CN(Cc1ccccc1)Cc1ccc(-c2cc3cc(N)ccc3oc2=O)cc1	0.281		< 5
COc1ccc2c(=O)cc(-c3ccc(CN(C)Cc4ccccc4)cc3)oc2c1	80.5		
COc1cc2cc(-c3ccc(CN(C)Cc4cccc([N+](=O)[O-])c4)cc3)c(=O)oc2cc1OC	0.368		
CN(Cc1ccccc1)Cc1ccc(-c2cc3cc([N+](=O)[O-])ccc3oc2=O)cc1	0.148		< 5
CCN(Cc1ccccc1)Cc1cccc(-c2coc3cc(OC)c(OC)cc3c2=O)c1	1.59		
COc1cc2cc(-c3ccc(CN(C)Cc4ccc(C)cc4)cc3)c(=O)oc2cc1OC	0.31		
COc1cc2cc(-c3ccc(CN(C)Cc4ccccc4[N+](=O)[O-])cc3)c(=O)oc2cc1OC	0.987		
